Reference: article PMC3948622, “Docking, Synthesis and Antiproliferative Activity of N-Acylhydrazone Derivatives Designed as Combretastatin A4 Analogues” (PLoS ONE, 2014)
Converted amounts (≈) assume the structure as drawn. Like-named read-outs stand apart in the source and are kept apart here.

Legend:
[1] = Aqueous solubility assay by ultraviolet spectroscopy; assay type: physicochemical; conditions: water (saturated aqueous solution), thermodynamic from solid, 2 hours at 37°C, read-out: Aq. Solubility
Experimental: Ultraviolet spectroscopy was performed using Femto spectrophotometer. The wavelength used in solubility assay was determined by the -λ max characteristic of each compound. Spectra were analyzed in Femtoscan software. Mass spectrometry was obtained by positive ionization at Bruker AmaZon SL and data analyzed in Compass 1.3.SR2 software.
The solubility assay was performed considering the absorptivity of compounds in ultraviolet spectroscopy as described by Schneider and coworkers. The assay wavelength was determined by the λ max characteristic of each compound.
Saturated aqueous solutions were prepared (0.01 mg/mL) and were kept under stirring for 2 hours at 37°C. The supernatant was filtered in 0,45 µm filters and transferred to a quartz cuvette (10 mm) to spectra acquisition.
Solubility was determined by linear regression using as graph plots, solutions prepared by dilutions of the original solution in methanol. The data were obtained in triplicates and the mean values were used to the graph plots. The correlation coefficient (R^2) values were between 0.9972 and 0.9999.

HL-60 (human leukemia) = assay: In vitro antiproliferative MTT assay, HL-60; assay type: cell-based; conditions: for IC50: Homo sapiens, HL-60; for SI Lymphocyte/ HL-60: IC50 for human lymphocytes/IC50 for cancer cell line
Experimental: (§1) The antiproliferative activity of compounds 5a–r was determined based on an MTT assay and using CA-4 as standard against the tumor cell lines: HL-60 (human leukemia), SF-295 (human glioblastoma), MDA-MB435 (melanoma), PC3M (prostate cancer), OVCAR-8 (ovaries adenocarcinoma), NCI-H258M (pulmonary bronchio-alveolar carcinoma) and HCT-8 (adenocarcinoma ileocecal) (Table 2). To determine the selectivity index of compounds 5a–r, their antiproliferative profile was also evaluated toward human lymphocytes (Table 2).
(§2) Compounds (0.009–5 µg/mL) were tested for cytotoxic activity against selected cancer cell lines: SF-295 (glioblastoma), HCT-8 (colon), MDAMB-435 (melanoma), HL60 (leukemia), PC3M (prostate cancer), OVCAR-8 (ovaries adenocarcinoma) and NCI-H258M (pulmonary bronchio-alveolar carcinoma). All cell lines were kindly obtained from the National Cancer Institute (Bethesda, MD, USA).Tumor cell proliferation was quantified through the ability of living cells to reduce the yellow dye 3-(4,5-dimethyl-2-thiazolyl)-2,5-diphenyl-2H-tetrazolium bromide (MTT, Sigma Aldrich)) to a purple formazan product and absorbance was measured at 595 nm (DTX-880, Beckman Coulter).

[2] = tested on: SF-295 (human glioblastoma); assay: In vitro antiproliferative MTT assay, SF-295; assay type: cell-based; conditions: for IC50: Homo sapiens, SF-295, read-out: IC50 SF295; for SI Lymphocyte/ SF-295: IC50 for human lymphocytes/IC50 for cancer cell line
Experimental: as §1, §2

[3] = tested on: HCT-8 (adenocarcinoma ileocecal); assay: In vitro antiproliferative MTT assay, HCT-8; assay type: cell-based; conditions: for IC50: Homo sapiens, HCT-8; for SI Lymphocyte/ HCT-8: IC50 for human lymphocytes/IC50 for cancer cell line
Experimental: as §1, §2

MDA-MB435 (melanoma) [4] = assay: In vitro antiproliferative MTT assay, MDA-MB435; assay type: cell-based; conditions: IC50 for human lymphocytes/IC50 for cancer cell line
Experimental: as §1, §2

PC3M (prostate cancer) = assay: In vitro antiproliferative MTT assay, PC3M; assay type: cell-based; conditions: for IC50: Homo sapiens, PC-3M, Table 2, MTT; for SI Lymphocyte/ PC3M: IC50 for human lymphocytes/IC50 for cancer cell line
Experimental: as §1, §2

[5] = tested on: OVCAR-8 (ovaries adenocarcinoma); assay: In vitro antiproliferative MTT assay, OVCAR-8; assay type: cell-based; conditions: for IC50: Homo sapiens, OVCAR-8, Table 2, MTT; for SI Lymphocyte/ OVCAR-8: IC50 for human lymphocytes/IC50 for cancer cell line
Experimental: as §1, §2

[6] = tested on: NCI-H358M (pulmonary bronchio-alveolar carcinoma); assay: In vitro antiproliferative MTT assay, NCI-H358M; assay type: cell-based; conditions: for SI Lymphocyte/ NCI-H358M: IC50 for human lymphocytes/IC50 for cancer cell line; for IC50: NCI-H358M, Table 2, MTT
human lymphocytes = assay: In vitro antiproliferative assay, human lymphocytes; assay type: cell-based; conditions: Lymphocyte, Table 2
Experimental: as §1
To investigate the selective cytotoxic activity of the N-acylhydrazones derivatives (5a–r), their antiproliferative potency was also assessed toward human lymphocytes and the results were compared to the data from CA-4 ([…]). The selectivity index (SI), which was the IC50 for human lymphocytes/IC50 for cancer cell lines after treatment with CA-4 and N-acylhydrazones (5a–r), was calculated, as depicted in Table 3. […] The best comparative selectivity indices (CA-4 vs 5b) were obtained from the SF-295 (SI = 13), MDA-MB435 (SI = 42) and NCI-H258M (SI = 9.5) tumor cell lines, and the worst results were found for OVCAR-8 (SI = 0.5).

MDA-MB435 (melanoma) [7] = assay: In vitro antiproliferative MTT assay, MDA-MB435; assay type: cell-based; conditions: Homo sapiens, MDA-MB-435

SMILES	solubility at 2 h [1] [µg/mL]	IC50 (HL-60 (human leukemia); Table 2, MTT) [nM]	SI Lymphocyte/ HL-60 (HL-60 (human leukemia))	IC50 ([2]; Table 2, MTT) [nM]	SI Lymphocyte/ SF-295 [2]	IC50 ([3]; Table 2, MTT) [nM]	SI Lymphocyte/ HCT-8 [3]	SI Lymphocyte/ MDA-MB345 (MDA-MB435 (melanoma) [4])	IC50 (PC3M (prostate cancer)) [nM]	IC50 [5] [nM]	SI Lymphocyte/ NCI-H358M [6]	IC50 [6] [nM]	IC50 (human lymphocytes) [nM]	IC50 (MDA-MB435 (melanoma) [7]; Table 2, MTT) [nM]	SI Lymphocyte/ PC3M (PC3M (prostate cancer))	SI Lymphocyte/ OVCAR-8 [5]	melting point [°C]	other results
COc1ccc(/C=C\c2cc(OC)c(OC)c(OC)c2)cc1O [CA-4, Combretastatin A4]	5.44 (≈ 17.2 µM)	2.1	1.44±0.05	6.2	0.44±0.04	5.3	0.59±0.01	0.42±0.02	4.7	0.37	0.52±0.12	8	3.2	7.9	–	–	–	–
COc1cc(C(=O)N/N=C/c2cccc(O)c2)cc(OC)c1OC [Compound 5c, (E)-N′-(3-hydroxybenzylidene)-3,4,5-trimetoxybenzohydrazide]	5.68 (≈ 17.2 µM)	1630	2.60±0.10	13000	0.32±0.02	4300	0.96±0.35	32.50±4.50	7510	5780	0.48±0.01	9500	4480	120	0.58±0.01	0.80±0.005	227 to 229	–
COc1cc(C(=O)N/N=C/c2ccc(O)cc2)cc(OC)c1OC [Compound 5d, (E)-N′-(4-hydroxybenzylidene)-3,4,5-trimetoxybenzohydrazide]	15 (≈ 45.4 µM)	2630	5.15±0.05	16000	0.82±0.02	6540	2.07±0.07	16.06±0.86	4570	6180	1.16±0.06	11800	13400	880	2.96±0.86	2.22±0.02	189	–
COc1cc(C(=O)N/N=C/c2ccc(O)c(O)c2)cc(OC)c1OC [Compound 5e, (E)-N′-(3,4-dihydroxybenzylidene)-3,4,5-trimetoxybenzohydrazide]	3.94 (≈ 11.4 µM)	9300	0.82±0.02	> 25000	–	> 25000	–	0.06±0.00	24400	> 25000	0.30±0.00	> 25000	7360	11800	0.30±0.005	0.2±0.00	160	–
COc1ccc(/C=N/NC(=O)c2cc(OC)c(OC)c(OC)c2)cc1OC [Compound 5g, (E)-N′-(3,4-dimethoxybenzylidene)-3,4,5-trimetoxybenzohydrazide]	1.94 (≈ 5.18 µM)	4430	4.10±0.10	18100	0.99±0.005	7050	2.50±0.005	8.41±0.09	12600	7110	1.80±0.005	10200	18000	2110	1.44±0.04	2.55±0.05	190 to 191	–
COc1cc(C(=O)N/N=C/c2ccc3c(c2)OCO3)cc(OC)c1OC [Compound 5h, (E)-N′-(benzo[d][1], [3]dioxol-5-ylmethylene)-3,4,5-trimetoxybenzohydrazide]	1.34 (≈ 3.74 µM)	3070	0.43±0.01	860	1.47±0.02	55800	0.02±0.002	13.17±1.37	1140	1090	0.62±0.02	2150	1310	110	1.14±0.06	1.16±0.04	222 to 223	–
COc1cc(/C=N/NC(=O)c2cc(OC)c(OC)c(OC)c2)cc(OC)c1OC [Compound 5i, (E)-3,4,5-trimethoxy-N′-(3,4,5-trimethoxybenzylidene)benzohydrazide]	0.0894 (≈ 0.221 µM)	> 25000	1	> 25000	1	> 25000	1	1	> 25000	> 25000	1	> 25000	> 61800	> 25000	1	1	232	–
COc1cc(C(=O)N/N=C/c2coc3ccccc3c2=O)cc(OC)c1OC [Compound 5j, (E)-3,4,5-trimethoxy-N′-((4-oxo-4H-chromen-3-yl)methylene)benzohydrazide]	0.783 (≈ 2.05 µM)	> 25000	1	> 25000	1	23400	2.8	1	> 25000	> 25000	1	> 25000	> 65400	> 25000	1	1	205 to 206	–
COc1cc(C(=O)N/N=C/c2ccc(C)cc2)cc(OC)c1OC [Compound 5o, (E)-3,4,5-trimethoxy-N′-(4-methylbenzylidene) benzohydrazide]	6.93 (≈ 21.1 µM)	4.8	1.59±0.09	93	0.08±0.00	46	0.15±0.005	0.21±0.01	12.7	8.2	0.009±0.001	891	7.3	35	0.56±0.04	0.91±0.01	–	–
COc1cc(C(=O)N/N=C/c2ccc(Br)cc2)cc(OC)c1OC [Compound 5r, (E)-N′-(4-bromobenzylidene) - 3,4,5-trimetoxybenzohyidrazide]	0.262 (≈ 0.666 µM)	10.9	3.07±0.83	59	0.49±0.05	22	1.57±0.17	1.81	12.7	7.3	0.19±0.01	167	31.4	18.3	2.29±0.20	4.02±0.28	–	–
COc1cc(C(=O)N(C)/N=C/c2ccccc2)cc(OC)c1OC [Compound 11, (E)-N′-benzylidene-3,4,5-trimethoxy-N-methylbenzohydrazide]	–	–	–	–	–	–	–	–	–	–	–	–	–	–	–	–	71 to 73	IC50 (HL-60 (human leukemia); Table 4): 30 nM; IC50 ([2]; Table 4): 3800 nM; IC50 ([3]; Table 4): 540 nM; IC50 (MDA-MB435 (melanoma) [7]; Table 4): 1910 nM
